From patent US10449257B2, “Self-assembled composite ultrasmall peptide-polymer hydrogels” (Agency for Science, Technology and Research, priority 2011, dated 2019)
Where “and” joins values, the source holds several entries; their conditions need not be identical. Identical values can stand only once. Where a SMILES comes first, the peptide text is derived from it. Where no end group is shown, it is not given here.

Legend:
plasmid DNA = experiment: Composite peptide-DNA hydrogels: DNA loading, encapsulation and release; format: physicochemical; conditions: for amount of DNA that can be incorporated into the composite hydrogel: plasmid DNA loading
Method: Various peptides (AcLD6, i.e. Ac-LIVAGD, SEQ ID NO: 65; AcLK6, i.e. Ac-LIVAGK, SEQ ID NO: 66; AcLS6, i.e. Ac-LIVAGS, SEQ ID NO: 67) were used to encapsulate plasmid DNA, forming composite peptide-DNA hydrogels (A). […] When the composite hydrogels were incubated with DNAse, digested DNA fragments were not observed, compared to the naked DNA control. […] Potential applications include synthetic cell culture substrates that mediate sustained DNA, mRNA, siRNA and short hairpin RNA delivery (C).
The peptide sequence (particularly the polar head group) and concentration plays a significant role in determining the maximum amount of DNA that can be incorporated into the composite hydrogel.
Even after 10 days, at least 80% of the DNA loaded remained in composite hydrogel. In particular, the Ac-LIVAGK (L)-DNA hydrogel retained 95% of the DNA added. The release of the nucleic acid can potentially be modulated by the peptide composition.

[1] = Peptide stability studies (TGA, 1H-NMR, HPLC-MS after UV or autoclave treatment); format: physicochemical; conditions: for decomposition by 1H-NMR: UV treated (2 h, 254 nm) or autoclaved (30 min, 120° C.); for degradation by HPLC-MS: following UV and autoclave treatment
[2] = Pilot study with 4 mice (10 days): blood cell counts after hydrogel implant; format: in vivo; conditions: 30 μL gel implant
Text: There were no behavioral changes or weight loss following implantation for up to 2 months, and there was no significant difference in red or white blood cell counts or blood chemistry (liver and kidney function) between mice implanted with hydrogels and sham operated mice.

[3] = tested on: human derived adipose stem cells; experiment: Subcutaneous implantation of hydrogels seeded with human derived adipose stem cells; format: in vivo; conditions: nude mice, after 45 days
Text: FIG. 16. In vivo scaffold for adipose tissue regeneration Fat pad observed under the skeletal muscle layer in the region of the human adipose stem cell (hASC) implant 45 days post-implantation (A-C). The transplanted cells have the appearance of normal mature adipose tissue (D)—adipocytes with dark nuclei at edge, cells filled with fat.

[4] = SCID mice, listed as Ac-LIVAGK (L) gel

erythrocytes [2, 4] | lymphocytes [2, 4] | monocytes [2, 4] | thrombocytes [2, 4] | basophils ([2]; normal mouse) [K/uL] | eosinophils ([2]; normal mouse) [K/uL] | erythrocytes ([2]; normal mouse) [M/uL] | lymphocytes ([2]; normal mouse) [K/uL] | monocytes ([2]; normal mouse) [K/uL] | neutrophils ([2]; normal mouse) [K/uL] | thrombocytes ([2]; normal mouse) [M/uL] | release of the DNA (plasmid DNA; over the course of several days) | Compound | amount of DNA that can be incorporated into the composite hydrogel (plasmid DNA) | decomposition by 1H-NMR [1] | degradation by HPLC-MS [1] | encapsulating and trapping of plasmid DNA (plasmid DNA; composite peptide-DNA hydrogel) | adipose tissue formation under the implant site [3]
 |  |  |  |  |  |  |  |  |  |  |  | Ac-LIVAGD [AcLD6] | lowest threshold for DNA loading | do not decompose | minimal |  | 
9.29 M/uL and 11.33 M/uL | 0.88 K/uL and 0.9 K/uL | 0.22 K/uL and 0.12 K/uL | 0.607 M/uL and 0.978 M/uL | 0.02 | 0.11 | 10.65 | 3.76 | 0.42 | 1.6 | 0.833 | minimal release of the DNA | CC[C@H](C)[C@H](NC(=O)[C@H](CC(C)C)NC(C)=O)C(=O)N[C@H](C(=O)N[C@@H](C)C(=O)NCC(=O)N[C@@H](CCCCN)C(=O)O)C(C)C [AcLK6, Ac-LIVAGK] (Ac-LIVAGK-OH) | could integrate the highest concentration of DNA |  |  | extremely efficient in encapsulating and trapping the DNA | formation of fat pads
 |  |  |  |  |  |  |  |  |  |  |  | Ac-IVD (Ac-Ile-Val-Asp) [AcID3] |  | do not decompose | minimal |  | 
